Columns and labels:
[1] = molecular target: T1, human recombinant PTP1B (hPTP1B) (Homo sapiens, UniProt P18031); assay: Inhibition of tri-phosphorylated insulin receptor dodecaphosphopeptide dephosphorylation by hPTP1B (malachite green phosphate detection); format: biochemical
T1 construct: made in house
T1 sequence (P18031 1-435): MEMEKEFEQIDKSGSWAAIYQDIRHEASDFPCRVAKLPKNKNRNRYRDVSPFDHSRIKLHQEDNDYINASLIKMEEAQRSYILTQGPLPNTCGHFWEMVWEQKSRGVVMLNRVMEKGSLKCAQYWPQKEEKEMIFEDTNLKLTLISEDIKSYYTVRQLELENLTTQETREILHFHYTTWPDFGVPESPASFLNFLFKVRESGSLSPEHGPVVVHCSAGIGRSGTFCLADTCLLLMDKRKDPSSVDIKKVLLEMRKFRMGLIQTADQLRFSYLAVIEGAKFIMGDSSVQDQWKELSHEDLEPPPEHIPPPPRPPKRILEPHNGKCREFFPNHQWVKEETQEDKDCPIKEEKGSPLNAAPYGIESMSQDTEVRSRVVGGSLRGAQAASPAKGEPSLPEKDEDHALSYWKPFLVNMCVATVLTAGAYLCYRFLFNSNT

| inhibition at 1 µM ([1]; compound at 1.0 μM, percent of phosphatase control) [%] | melting point [°C] | IC50 ([1]; recombinant PTP1B, insulin receptor 1142-1153 triphosphopeptide substrate, 37° C., 30 min, pH 7.4) [µM] | Structure (SMILES) |
| --- | --- | --- | --- |
| 22.7 | 55 to 60 | – | Cc1sc(Cc2ccc(Br)cc2)c(C(=O)c2ccc(OS(=O)(=O)c3cnn(C)c3)c(C3CCCC3)c2)c1C [Example 27, 1-Methyl-1H-pyrazole-4-sulfonic acid 4-[2-(4-bromo-benzyl)-4,5-dimethyl-thiophene-3-carbonyl]-2-cyclopentyl-phenyl ester] |
| – | 135 to 138 | 0.577 | CCCCc1oc2ccccc2c1Cc1ccc(OS(=O)(=O)c2ccc(C(=O)O)c(O)c2)cc1 [Example 28, 4-[4-(2-Butyl-benzofuran-3-ylmethyl)-phenoxysulfonyl]-2-hydroxy-benzoic acid] |
